Common to all, as to assay: NCI-60 cell line screen, 48 h
For experiment [1], the system named is BT-549 breast.
The test system of experiment [2] is CCRF-CEM leukemia.
Experiment [3] has as its system EKVX NSCLC.
The test system of experiment [4] is HCT-116 colon.
For experiment [5], the system named is HL-60(TB) leukemia.
In experiment [6] the test system is HOP-62 NSCLC.
Experiment [7] has as its system OVCAR-5 ovarian.
For experiment [8], the system named is RXF 393 renal.
In experiment [9] the test system is TK-10 renal.
Experiment [10] relates to HCC-2998 colon.

Where “and” joins values, the source holds several entries; their conditions need not be identical. Identical values can stand only once.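 Cultured in 96-well plates, cells were exposed to test compound for 48 hours across five concentrations. At the GI50, growth is halved. The concentration for full growth arrest is given as TGI.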

`Clc1ccc(Nc2ncnc3c2sc2ncccc23)c(Cl)c1`: the GI50 is 0.0243 µM in experiment [1]; 0.0218 µM in experiment [2]; 0.0826 µM in [3]; below 0.01 µM in [4]; below 0.0137 µM in experiment [5]; below 0.01 µM in experiment [6]. Besides, the GI50 in [7] was 0.0576 µM; in experiment [8], 0.0492 µM; in experiment [9], above 100 µM. For the same compound, the TGI in [1] was above 100 µM; in experiment [2] it was above 100 µM; in experiment [3], above 100 µM; in [4], above 100 µM; in experiment [5], above 100 µM; in experiment [6], above 19.7 µM. Also, the TGI in experiment [7], in experiment [8] and in experiment [9] was above 100 µM each time.
Consider `O=C1c2ccccc2-c2ccccc2C1(Cl)Cl`, for which the GI50 in experiment [1] was 1.72 µM; in experiment [2], 1.65 µM; in experiment [3], 1.46 µM; in experiment [4], 0.3 µM; in [5], 2.29 µM; in experiment [6] it was 1.13 µM. Besides, the GI50 was 1.78 µM in experiment [8] and 1.25 µM in experiment [9]. Also, the TGI was determined as 3.14 µM in experiment [1]; 7.03 µM in experiment [2]; 2.88 µM in experiment [3]; 1.09 µM in experiment [4]; 5.93 µM in experiment [5]; 2.64 µM in experiment [6]. The values for the TGI in experiment [8] and in experiment [9] were 3.2 µM and 2.68 µM, respectively.
`O=[N+]([O-])c1cccc([I+]c2ccccc2)c1`: the GI50 is 10.5 µM in [1]; 5.27 µM in experiment [2]; 7.05 µM in [4]; 4.93 µM in [5]; 5.19 µM in experiment [6]; 17.7 µM in experiment [7]. Besides, the TGI in [1] was 23.1 µM; in experiment [2] it was 90.7 µM; in [4], 24.2 µM; in [5], 41.2 µM; in [6], 18.8 µM; in experiment [7], 38.4 µM.
Turning to `O=C(NC(Cc1ccccc1)C(=O)CCl)OCc1ccccc1` (stereo unspecified), the GI50 in [1] is 2.31 µM; in experiment [2], 2.34 µM; in experiment [10], 12.3 µM; in experiment [4] it was 1.65 µM; in experiment [5] it was 14.3 µM; in [7] it was 5.64 µM. In addition, the GI50 is 3.62 µM in experiment [8] and 2.58 µM in experiment [9]. Further, the TGI in [1] is 6 µM; in [2], 13.8 µM and 11.6 µM; in experiment [10] it was 28.8 µM and 32.2 µM; in experiment [4] it was 3.32 µM and 26.5 µM; in experiment [5], 43.1 µM and 13.4 µM; in experiment [6], 30.6 µM and 29.4 µM. In addition, the TGI in [7] is 18.5 µM and 24.2 µM; in experiment [8], 14.2 µM; in experiment [9], 9.43 µM and 28.4 µM.
In the case of `NC(CSC1(c2ccc(Cl)cc2)c2ccccc2-c2ccccc21)C(=O)O` (stereo unspecified), the TGI in experiment [1] was 34.6 µM; in experiment [2] it was above 100 µM; in experiment [3], above 100 µM; in [4], 34.6 µM; in [5], above 100 µM; in [6], 49.6 µM. Besides, the TGI is 79.5 µM in experiment [7], above 100 µM in experiment [8] and 48.3 µM in [9].
Consider `COc1cc(OC)c(/C=C/C(=O)c2c(O)cc(OC)c(C3CCN(C)CC3)c2OC)c(OC)c1`, for which the GI50 in [1] is 1.43 µM; in [2] it was 1.18 µM; in [3] it was 1.12 µM; in [10], 1.46 µM; in [4], 0.414 µM; in experiment [5], 2.17 µM. Further, the GI50 is 1.73 µM in [6], 1.48 µM in [7] and 1.76 µM in experiment [8]. In addition, the TGI turned out to be 2.73 µM in experiment [1]; 2.78 µM in experiment [2]; 2.48 µM in experiment [3]; 2.82 µM in experiment [10]; 1.65 µM in experiment [4]; 3.99 µM in [5]. In addition, the TGI worked out at 3.16 µM in experiment [6], 2.84 µM in [7] and 3.3 µM in experiment [8].
With `O=C(Nc1nc(-c2ccccc2Cl)cs1)c1cc(-c2ccc(Cl)cc2)nc2ccc(Cl)cc12`, the GI50 in [1] is 2.44 µM; in experiment [2], 3.54 µM; in experiment [3], 7.18 µM; in experiment [10], 5.61 µM; in experiment [4], 0.395 µM; in experiment [6], 3.73 µM. Besides, the results for the GI50 in experiment [7], in [8] and in [9] were 23.1 µM, 10.3 µM and 15 µM, respectively. Also, the TGI was 6.99 µM in experiment [1]; above 100 µM in experiment [2]; above 100 µM in experiment [3]; above 100 µM in [10]; 13.2 µM in [4]; 45 µM in experiment [6]. For the same compound, the TGI in [7], in experiment [8] and in [9] was above 100 µM throughout.
Turning to `O=C(CC1(O)C(=O)Nc2ccc([N+](=O)[O-])cc21)c1ccc(Br)cc1` (stereo unspecified), the TGI was above 100 µM in experiment [2]; above 100 µM in [3]; above 100 µM in [10]; above 100 µM in experiment [4]; 45.7 µM in [5]; above 100 µM in experiment [6]. The TGI in experiment [7] was above 100 µM; in experiment [8] it was 71.1 µM; in [9] it was 69.5 µM.
`O=C(O)c1c[nH]c2c(ccc3[nH]cc(C(=O)O)c(=O)c32)c1=O`: the TGI in experiment [1], in experiment [3], in experiment [4], in [5], in experiment [6] and in experiment [7] was above 100 µM in each case. For the same compound, the TGI in experiment [8] and in experiment [9] was above 100 µM throughout.
As to `C=CCCCC(O)c1ccc(C(O)c2cnc3ccccc3c2)o1` (stereo unspecified), the GI50 in [1] was 19.7 µM; in experiment [2] it was 29.4 µM; in [3] it was 19.2 µM; in experiment [10], 19 µM; in experiment [6] it was 21.2 µM; in experiment [7] it was 24.4 µM. Moreover, the GI50 in experiment [8] is 83.2 µM; in experiment [9] it was 33.2 µM. The TGI in experiment [1] was 63.5 µM; in experiment [2], 86.7 µM; in [3], above 100 µM; in experiment [10] it was 51.4 µM; in [6] it was 64.9 µM; in [7], 76.8 µM. Further, the TGI in experiment [8] was above 100 µM; in [9] it was 67 µM.

The values are drawn from PubChem BioAssay (NCI).
